Reference: the supplement of paper PMC10307832

Key:
Assay in all cases: relative viability (nuclei count vs DMSO), 5 days (fraction); higher = more cells survive
[1] = compound: C=CC(=O)N1CCC[C@@H](n2nc(-c3ccc(Oc4ccccc4)cc3)c3c(N)ncnc32)C1 [Ibrutinib] + Nc1nc2[nH]cc(CCc3ccc(C(=O)N[C@@H](CCC(=O)O)C(=O)O)cc3)c2c(=O)[nH]1 [Pemetrexed] (partner 0.2 µM)
Method in brief: (§1)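 The day after seeding in 1536-well plates, lung cancer cell lines were treated by pin tool with a single drug, or with a fixed anchor-drug dose together with five library-drug doses (not always all listed) in √10 steps. After 5 days, a combined fix-and-stain solution (final 0.05% Triton X-100, 1% formaldehyde, 1 ug/ml Hoechst) was added. Nuclei counted on 4× images gave relative viability as treated counts over vehicle counts, reported as the median of duplicate plates.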

[2] = compound: C=CC(=O)Nc1cc(-n2c(=O)ccc3cnc4ccc(-c5ccc(NS(C)(=O)=O)cc5)cc4c32)ccc1C [BMX-IN-1] + C[C@@H](Oc1cc(-c2cnn(C3CCNCC3)c2)cnc1N)c1c(Cl)ccc(F)c1Cl [Crizotinib] (partner 1 µM)
Method in brief: as §1

[3] = compound: C=CCc1cccc(/C=N/NC(=O)CN2CCN(Cc3ccccc3)CC2)c1O [PAC-1] + Nc1ncn([C@H]2C[C@H](O)[C@@H](CO)O2)c(=O)n1 [Decitabine] (partner 2 µM)
Method in brief: as §1

[4] = compound: C=CCc1cccc(/C=N/NC(=O)CN2CCN(Cc3ccccc3)CC2)c1O [PAC-1] + CS(=O)(=O)CCNCc1ccc(-c2ccc3ncnc(Nc4ccc(OCc5cccc(F)c5)c(Cl)c4)c3c2)o1 [Lapatinib] (partner 2 µM)
Method in brief: as §1

Work on SK-MES-1 yielded a relative viability ([1]; first compound 0.005 µM) of 1.01, a relative viability ([1]; first compound 0.01581 µM) of 0.951 and a relative viability ([1]; first compound 0.05 µM) of 0.905. It also gave a relative viability ([1]; first compound 0.1581 µM) of 1.14, a relative viability ([1]; first compound 0.5 µM) of 0.752 and a relative viability ([2]; first compound 0.02 µM) of 1.08. For the same cell line, the relative viability ([2]; first compound 0.2 µM) was 1.3, the relative viability ([2]; first compound 0.6325 µM) was 1.08 and the relative viability ([2]; first compound 2 µM) was 1.1. For the same cell line, the relative viability ([3]; first compound 0.02 µM) was 0.432, the relative viability ([3]; first compound 0.06325 µM) was 0.389 and the relative viability ([3]; first compound 0.2 µM) was 0.325. It also gave a relative viability ([3]; first compound 2 µM) of 0.322, a relative viability ([4]; first compound 0.02 µM) of 0.455 and a relative viability ([4]; first compound 0.06325 µM) of 0.457. The relative viability ([4]; first compound 0.2 µM) was 0.443 and the relative viability ([4]; first compound 2 µM) was 0.445.
